{"source": "ChEMBL document CHEMBL6134873", "about": "“Identification of Novel Cyclobutane-Based Derivatives as Potent Acetyl-CoA Carboxylase Allosteric Inhibitors for Nonalcoholic Steatohepatitis Drug Discovery” (J Med Chem, 2025)", "key": {"Cytochrome P450 2C8": {"molecular_target": "T1, Cytochrome P450 2C8 (Homo sapiens, UniProt P10632)", "T1 sequence (P10632 whole entry)": "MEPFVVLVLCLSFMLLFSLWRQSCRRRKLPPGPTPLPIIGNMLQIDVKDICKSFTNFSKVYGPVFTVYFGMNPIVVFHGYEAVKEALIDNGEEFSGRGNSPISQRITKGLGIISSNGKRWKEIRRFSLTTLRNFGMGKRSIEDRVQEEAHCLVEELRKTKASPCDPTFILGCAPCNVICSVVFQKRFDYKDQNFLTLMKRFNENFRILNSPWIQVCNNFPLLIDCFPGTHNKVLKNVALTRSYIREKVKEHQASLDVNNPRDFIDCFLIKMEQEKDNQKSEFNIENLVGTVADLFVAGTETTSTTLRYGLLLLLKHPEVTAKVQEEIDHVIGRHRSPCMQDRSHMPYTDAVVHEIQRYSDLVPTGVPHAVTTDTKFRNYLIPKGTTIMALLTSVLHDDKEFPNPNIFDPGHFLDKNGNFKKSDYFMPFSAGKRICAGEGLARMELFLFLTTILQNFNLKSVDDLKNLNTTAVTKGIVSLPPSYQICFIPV", "test": "Inhibition of CYP2C8 (unknown origin)", "assay_type": "ADME"}, "[1]": {"test": "Tmax in Sprague-Dawley rat at 3 mg/kg, po measured for 0.25 to 24 hrs by LC-MS/MS analysis", "assay_type": "ADME, organism-based", "conditions": "in vivo, time 0.25-24 hrs; call rule not given here"}, "[2]": {"test": "Biodistribution in 12 hr-fasted male wild-type Sprague-Dawley rat assessed as increase in ratio of drug concentration in kidney/plasma at 3 mg/kg, po measured after 4 hrs by LC-MS/MS analysis", "assay_type": "ADME, organism-based", "conditions": "in vivo"}, "[3]": {"test": "Protein binding in monkey plasma", "assay_type": "ADME, cell-free, Macaca mulatta", "conditions": "rhesus monkey, read-out: PPB (converted)"}, "[4]": {"test": "Intrinsic clearance in rat liver microsomes", "assay_type": "ADME, Microsome", "conditions": "read-out: CLH"}, "[5]": {"test": "Intrinsic clearance in dog liver microsomes", "assay_type": "ADME, Canis lupus familiaris, Microsome", "conditions": "read-out: CLH"}, "[6]": {"test": "Suppression of Col1A1 mRNA expression in TGF-beta1-treated human LX2 cells incubated for 24 hrs by qPCR analysis", "assay_type": "functional, cell-based", "conditions": "LX-2, 24 h"}, "in vivo [7]": {"test": "in vivo", "conditions": "Sprague-Dawley, rat, liver, po, 3 mg/kg", "description": "Drug concentration in liver of Sprague-Dawley rat at 3 mg/kg, po measured after 1 hr by LC-MS/MS analysis"}, "[8]": {"test": "Protein binding in dog plasma", "assay_type": "ADME, cell-free, Canis lupus familiaris", "conditions": "read-out: PPB (converted)"}, "[9]": {"test": "Half life in Sprague-Dawley rat at 1 mg/kg, iv measured for 0.25 to 24 hrs by LC-MS/MS analysis", "assay_type": "ADME, organism-based", "conditions": "in vivo, time 0.25-24 hrs"}, "[10]": {"test": "Cmax in Sprague-Dawley rat at 3 mg/kg, po measured for 0.25 to 24 hrs by LC-MS/MS analysis", "assay_type": "ADME, organism-based", "conditions": "in vivo, time 0.25-24 hrs"}, "[11]": {"test": "Volume of distribution in Sprague-Dawley rat at 1 mg/kg, iv measured for 0.25 to 24 hrs by LC-MS/MS analysis", "assay_type": "ADME, organism-based", "conditions": "in vivo, time 0.25-24 hrs"}, "Cytochrome P450 1A2": {"molecular_target": "T2, Cytochrome P450 1A2 (Homo sapiens, UniProt P05177)", "T2 sequence (P05177 whole entry)": "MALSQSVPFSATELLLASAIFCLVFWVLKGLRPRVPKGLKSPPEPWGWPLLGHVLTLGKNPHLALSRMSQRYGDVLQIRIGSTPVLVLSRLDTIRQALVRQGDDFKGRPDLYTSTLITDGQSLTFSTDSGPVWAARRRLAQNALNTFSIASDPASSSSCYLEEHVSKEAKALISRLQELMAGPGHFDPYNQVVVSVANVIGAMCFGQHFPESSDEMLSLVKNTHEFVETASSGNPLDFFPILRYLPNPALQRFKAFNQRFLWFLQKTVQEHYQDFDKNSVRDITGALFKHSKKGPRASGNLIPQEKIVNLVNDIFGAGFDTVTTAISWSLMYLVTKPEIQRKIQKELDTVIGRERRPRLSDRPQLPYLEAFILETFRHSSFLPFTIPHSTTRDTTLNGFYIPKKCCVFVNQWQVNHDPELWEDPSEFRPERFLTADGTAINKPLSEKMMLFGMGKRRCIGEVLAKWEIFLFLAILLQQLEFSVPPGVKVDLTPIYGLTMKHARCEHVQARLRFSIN", "test": "Inhibition of CYP1A2 (unknown origin)", "assay_type": "ADME"}, "[12]": {"test": "Protein binding in mouse plasma", "assay_type": "ADME, cell-free", "conditions": "read-out: PPB (converted)"}, "[13]": {"test": "AUC (0 to t) in Sprague-Dawley rat at 1 mg/kg, iv measured for 0.25 to 24 hrs by LC-MS/MS analysis", "assay_type": "ADME, organism-based", "conditions": "in vivo, time 0.25-24 hrs"}, "[14]": {"test": "MRT (0 to t) in Sprague-Dawley rat at 3 mg/kg, po measured for 0.25 to 24 hrs by LC-MS/MS analysis", "assay_type": "ADME, organism-based", "conditions": "in vivo, time 0.25-24 hrs"}, "Cytochrome P450 2C9": {"molecular_target": "Cytochrome P450 2C9 (Homo sapiens, UniProt P11712)", "sequence (P11712 whole entry)": "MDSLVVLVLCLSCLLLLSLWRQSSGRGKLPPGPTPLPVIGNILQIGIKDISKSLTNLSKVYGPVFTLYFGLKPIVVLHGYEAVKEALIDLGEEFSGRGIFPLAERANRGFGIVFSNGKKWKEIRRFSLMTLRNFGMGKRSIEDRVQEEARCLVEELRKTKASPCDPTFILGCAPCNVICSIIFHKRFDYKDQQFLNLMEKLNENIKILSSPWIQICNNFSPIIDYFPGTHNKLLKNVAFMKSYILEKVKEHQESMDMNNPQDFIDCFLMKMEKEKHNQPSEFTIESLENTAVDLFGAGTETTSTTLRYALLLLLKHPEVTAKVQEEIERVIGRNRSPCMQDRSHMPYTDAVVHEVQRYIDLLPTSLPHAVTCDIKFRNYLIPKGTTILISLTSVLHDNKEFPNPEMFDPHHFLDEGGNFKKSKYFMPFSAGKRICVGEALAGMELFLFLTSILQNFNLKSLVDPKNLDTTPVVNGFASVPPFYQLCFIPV", "test": "Inhibition of CYP2C9 (unknown origin)", "assay_type": "ADME"}, "in vivo [15]": {"test": "in vivo", "conditions": "Sprague-Dawley, rat, plasma, po, 3 mg/kg", "description": "Drug concentration in plasma of Sprague-Dawley rat at 3 mg/kg, po measured after 1 hr by LC-MS/MS analysis"}, "[16]": {"test": "Protein binding in human plasma", "assay_type": "ADME, cell-free", "conditions": "read-out: PPB (converted)"}, "Cytochrome P450 2D6": {"molecular_target": "Cytochrome P450 2D6 (Homo sapiens, UniProt P10635)", "sequence (P10635 whole entry)": "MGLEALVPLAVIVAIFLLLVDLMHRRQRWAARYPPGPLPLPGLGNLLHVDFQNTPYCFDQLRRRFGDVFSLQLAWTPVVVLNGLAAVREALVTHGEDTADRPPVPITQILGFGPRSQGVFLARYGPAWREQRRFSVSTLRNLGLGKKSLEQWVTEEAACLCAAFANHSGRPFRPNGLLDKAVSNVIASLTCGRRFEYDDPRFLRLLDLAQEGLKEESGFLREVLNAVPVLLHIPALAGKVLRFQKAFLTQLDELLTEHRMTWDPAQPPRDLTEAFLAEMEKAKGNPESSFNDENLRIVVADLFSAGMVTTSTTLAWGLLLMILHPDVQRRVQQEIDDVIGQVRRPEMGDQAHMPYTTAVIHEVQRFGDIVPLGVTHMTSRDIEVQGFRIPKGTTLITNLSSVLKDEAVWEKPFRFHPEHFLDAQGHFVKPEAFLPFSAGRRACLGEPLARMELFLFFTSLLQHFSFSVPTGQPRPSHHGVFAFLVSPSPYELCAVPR", "test": "Inhibition of CYP2D6 (unknown origin)", "assay_type": "ADME"}, "[17]": {"molecular_target": "Voltage-gated inwardly rectifying potassium channel KCNH2 (Homo sapiens, UniProt Q12809)", "sequence (Q12809 whole entry)": "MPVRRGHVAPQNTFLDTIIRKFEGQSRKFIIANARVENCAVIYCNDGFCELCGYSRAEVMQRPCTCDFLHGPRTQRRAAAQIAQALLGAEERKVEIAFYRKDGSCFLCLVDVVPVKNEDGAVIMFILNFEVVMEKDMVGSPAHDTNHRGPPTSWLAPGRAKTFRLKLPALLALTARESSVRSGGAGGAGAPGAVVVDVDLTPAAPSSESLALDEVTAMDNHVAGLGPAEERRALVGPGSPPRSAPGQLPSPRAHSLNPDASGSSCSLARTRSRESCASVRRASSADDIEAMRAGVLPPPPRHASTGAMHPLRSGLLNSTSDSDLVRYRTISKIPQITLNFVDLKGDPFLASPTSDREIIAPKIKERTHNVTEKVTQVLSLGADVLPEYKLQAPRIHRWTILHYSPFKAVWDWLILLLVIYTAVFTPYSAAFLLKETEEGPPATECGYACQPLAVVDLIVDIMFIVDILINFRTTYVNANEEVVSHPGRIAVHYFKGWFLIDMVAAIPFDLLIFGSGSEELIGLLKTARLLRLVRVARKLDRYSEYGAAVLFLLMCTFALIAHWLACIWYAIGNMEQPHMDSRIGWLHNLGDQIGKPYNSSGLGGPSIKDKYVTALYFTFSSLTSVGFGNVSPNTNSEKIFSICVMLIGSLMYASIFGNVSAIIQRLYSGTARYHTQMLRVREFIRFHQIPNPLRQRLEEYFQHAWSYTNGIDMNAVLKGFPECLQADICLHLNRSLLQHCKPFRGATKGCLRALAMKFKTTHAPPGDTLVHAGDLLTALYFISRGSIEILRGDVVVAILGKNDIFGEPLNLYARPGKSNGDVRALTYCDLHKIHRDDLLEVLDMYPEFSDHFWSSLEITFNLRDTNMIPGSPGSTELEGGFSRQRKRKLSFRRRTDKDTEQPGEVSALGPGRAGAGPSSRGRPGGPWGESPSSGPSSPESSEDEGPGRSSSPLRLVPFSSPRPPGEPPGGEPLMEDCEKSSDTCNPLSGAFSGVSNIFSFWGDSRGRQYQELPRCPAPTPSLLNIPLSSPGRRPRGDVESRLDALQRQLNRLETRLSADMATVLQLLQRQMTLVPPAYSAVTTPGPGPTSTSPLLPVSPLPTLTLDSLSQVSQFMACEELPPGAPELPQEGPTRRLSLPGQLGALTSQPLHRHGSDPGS", "test": "Inhibition of hERG", "assay_type": "toxicity"}, "[18]": {"test": "Toxicity in Sprague-Dawley rat model of DEN-induced liver fibrosis assessed as body weight loss at 3 to 10 mg/kg, po qd treated for 4 weeks", "assay_type": "organism-based", "conditions": "in vivo, 672 h, dose 3-10 mg/kg"}, "[19]": {"test": "Biodistribution in 12 hr-fasted male wild-type Sprague-Dawley rat assessed as increase in ratio of drug concentration in liver/plasma at 3 mg/kg, po measured for 0.25 to 4 hrs by LC-MS/MS analysis", "assay_type": "ADME, organism-based", "conditions": "in vivo, time 0.25-4 hrs"}, "[20]": {"test": "Toxicity in Sprague-Dawley rat model of DEN-induced liver fibrosis assessed as drug tolerance at 3 to 10 mg/kg, po qd treated for 4 weeks", "assay_type": "organism-based", "conditions": "in vivo, 672 h, dose 3-10 mg/kg"}, "in vivo [21]": {"test": "in vivo", "conditions": "Sprague-Dawley, rat, plasma, po, 3 mg/kg", "remark": "listed apart in the source", "description": "Drug concentration in plasma of Sprague-Dawley rat at 3 mg/kg, po measured after 0.25 hrs by LC-MS/MS analysis"}, "[22]": {"test": "Biodistribution in liver of 12 hr-fasted male wild-type Sprague-Dawley rat at 3 mg/kg, po measured after 4 hrs by LC-MS/MS analysis", "assay_type": "ADME, organism-based", "conditions": "in vivo"}, "in vivo [23]": {"test": "in vivo", "conditions": "Sprague-Dawley, rat, liver, po, 3 mg/kg", "remark": "listed apart in the source", "description": "Drug concentration in liver of Sprague-Dawley rat at 3 mg/kg, po measured after 0.25 hrs by LC-MS/MS analysis"}, "[24]": {"test": "Clearance in Sprague-Dawley rat at 1 mg/kg, iv measured for 0.25 to 24 hrs by LC-MS/MS analysis", "assay_type": "ADME, organism-based", "conditions": "in vivo, time 0.25-24 hrs"}, "[25]": {"test": "MRT (0 to t) in Sprague-Dawley rat at 1 mg/kg, iv measured for 0.25 to 24 hrs by LC-MS/MS analysis", "assay_type": "ADME, organism-based", "conditions": "in vivo, time 0.25-24 hrs"}, "[26]": {"test": "Toxicity in Sprague-Dawley rat model of DEN-induced liver fibrosis assessed as animal mortality at 3 to 10 mg/kg, po qd treated for 4 weeks", "assay_type": "organism-based", "conditions": "in vivo, 672 h, dose 3-10 mg/kg"}, "in vivo [27]": {"test": "in vivo", "conditions": "Sprague-Dawley, rat, plasma, po, 3 mg/kg", "remark": "listed apart in the source", "description": "Drug concentration in plasma of Sprague-Dawley rat at 3 mg/kg, po measured after 4 hrs by LC-MS/MS analysis"}, "[28]": {"test": "Stability of compound assessed as (1S,3s)-3-(1-((R)-2-(2-hydroxyphenyl)-2-((tetrahydro-2H-pyran-4-yl)oxy)ethyl)-5-methyl-6-(oxazol-2-yl)-2,4-dioxo-1,4-dihydrothieno[2,3-d]pyrimidin-3(2H)-yl)-1-methylcyclobutane-1-carboxylic acid metabolite formation by measuring retention time", "assay_type": "ADME"}, "Acetyl-CoA carboxylase 2": {"molecular_target": "Acetyl-CoA carboxylase 2 (Homo sapiens, UniProt O00763)", "sequence (O00763 whole entry)": "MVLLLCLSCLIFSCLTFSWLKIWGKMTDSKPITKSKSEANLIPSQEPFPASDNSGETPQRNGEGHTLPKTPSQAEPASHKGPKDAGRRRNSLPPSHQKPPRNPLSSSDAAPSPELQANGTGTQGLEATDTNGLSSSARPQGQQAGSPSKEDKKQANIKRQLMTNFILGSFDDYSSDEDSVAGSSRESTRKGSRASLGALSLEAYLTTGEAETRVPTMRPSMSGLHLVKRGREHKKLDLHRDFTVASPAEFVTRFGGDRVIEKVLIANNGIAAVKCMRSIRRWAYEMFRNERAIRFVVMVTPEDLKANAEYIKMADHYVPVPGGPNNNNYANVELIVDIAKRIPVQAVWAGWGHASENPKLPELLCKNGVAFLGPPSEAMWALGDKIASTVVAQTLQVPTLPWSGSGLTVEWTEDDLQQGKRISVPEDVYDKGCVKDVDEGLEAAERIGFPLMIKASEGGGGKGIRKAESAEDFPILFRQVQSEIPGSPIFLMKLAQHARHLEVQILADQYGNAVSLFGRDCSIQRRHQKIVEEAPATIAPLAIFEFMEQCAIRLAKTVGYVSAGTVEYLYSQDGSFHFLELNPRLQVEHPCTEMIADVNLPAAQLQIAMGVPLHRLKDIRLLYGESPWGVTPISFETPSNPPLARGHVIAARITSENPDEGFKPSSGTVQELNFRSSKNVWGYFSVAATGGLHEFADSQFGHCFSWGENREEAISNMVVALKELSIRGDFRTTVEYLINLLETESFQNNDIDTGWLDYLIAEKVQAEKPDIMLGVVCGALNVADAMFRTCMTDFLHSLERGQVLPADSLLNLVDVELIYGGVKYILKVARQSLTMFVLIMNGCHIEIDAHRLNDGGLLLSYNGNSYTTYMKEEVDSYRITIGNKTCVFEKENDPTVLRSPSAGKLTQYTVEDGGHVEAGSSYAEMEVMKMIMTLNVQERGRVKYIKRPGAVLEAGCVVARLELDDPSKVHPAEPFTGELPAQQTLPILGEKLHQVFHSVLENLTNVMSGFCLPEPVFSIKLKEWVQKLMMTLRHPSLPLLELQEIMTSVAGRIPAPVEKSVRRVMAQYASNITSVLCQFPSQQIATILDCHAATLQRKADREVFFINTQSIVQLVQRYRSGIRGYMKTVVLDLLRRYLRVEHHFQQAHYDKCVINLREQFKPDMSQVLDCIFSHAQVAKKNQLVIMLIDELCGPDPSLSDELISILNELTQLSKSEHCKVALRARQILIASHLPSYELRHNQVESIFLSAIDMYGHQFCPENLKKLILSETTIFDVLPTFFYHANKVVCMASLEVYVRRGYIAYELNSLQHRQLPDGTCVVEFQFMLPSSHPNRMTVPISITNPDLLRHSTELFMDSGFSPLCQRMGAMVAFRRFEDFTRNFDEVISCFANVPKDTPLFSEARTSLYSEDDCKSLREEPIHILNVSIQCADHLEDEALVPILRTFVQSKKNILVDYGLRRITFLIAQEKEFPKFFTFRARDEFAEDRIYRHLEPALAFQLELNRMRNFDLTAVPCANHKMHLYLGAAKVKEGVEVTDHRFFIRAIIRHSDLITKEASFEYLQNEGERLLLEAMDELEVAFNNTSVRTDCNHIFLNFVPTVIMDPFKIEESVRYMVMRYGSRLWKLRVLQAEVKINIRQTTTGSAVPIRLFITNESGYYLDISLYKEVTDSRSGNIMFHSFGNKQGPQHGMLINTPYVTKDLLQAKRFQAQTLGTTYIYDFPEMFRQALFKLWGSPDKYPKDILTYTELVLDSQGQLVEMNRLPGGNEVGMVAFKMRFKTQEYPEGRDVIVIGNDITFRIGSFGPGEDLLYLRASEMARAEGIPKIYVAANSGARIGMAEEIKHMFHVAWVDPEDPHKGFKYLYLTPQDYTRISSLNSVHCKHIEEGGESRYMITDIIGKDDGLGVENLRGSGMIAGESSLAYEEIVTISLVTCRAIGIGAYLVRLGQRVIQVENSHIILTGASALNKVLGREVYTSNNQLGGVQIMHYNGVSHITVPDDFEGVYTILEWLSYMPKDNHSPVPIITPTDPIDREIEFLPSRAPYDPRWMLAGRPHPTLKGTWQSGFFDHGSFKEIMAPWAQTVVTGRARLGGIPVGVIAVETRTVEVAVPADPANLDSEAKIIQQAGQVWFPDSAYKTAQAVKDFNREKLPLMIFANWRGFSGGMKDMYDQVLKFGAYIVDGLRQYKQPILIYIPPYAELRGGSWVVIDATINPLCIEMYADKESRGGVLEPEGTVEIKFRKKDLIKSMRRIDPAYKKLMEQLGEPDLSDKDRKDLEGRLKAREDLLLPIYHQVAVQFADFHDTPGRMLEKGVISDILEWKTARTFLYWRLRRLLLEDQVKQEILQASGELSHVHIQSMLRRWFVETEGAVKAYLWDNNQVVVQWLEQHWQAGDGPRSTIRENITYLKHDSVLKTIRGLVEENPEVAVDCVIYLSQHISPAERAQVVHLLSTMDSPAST", "description": "Inhibition of recombinant human ACC2 using acetyl-Co A as substrate incubated for 60 mins in presence of ATP by ADP-Glo assay"}}, "data": [{"molecule": "COc1ccccc1[C@H](Cn1c(=O)n([C@H]2C[C@@](C)(C(=O)O)C2)c(=O)c2c(C)c(-c3ncco3)sc21)OC1CCOCC1", "values": [{"measurement": "IC50", "setting": "Cytochrome P450 2C8", "result": "> 30", "unit": "µM"}, {"measurement": "Tmax", "setting": "[1]", "result": 24, "unit": "min"}, {"measurement": "Drug uptake", "setting": "[2]", "result": "Not_active"}, {"measurement": "fraction unbound", "setting": "[3]", "result": 0.043}, {"measurement": "CLint scaled", "setting": "[4]", "result": "< 17.3", "unit": "mL/min/kg"}, {"measurement": "CLint scaled", "setting": "[5]", "result": "< 13.8", "unit": "mL/min/kg"}, {"measurement": "IC50", "setting": "[6]", "result": 0.507, "unit": "µM"}, {"measurement": "concentration at 1 h", "setting": "in vivo [7]", "result": 2940, "unit": "ng/mL"}, {"measurement": "fraction unbound", "setting": "[8]", "result": 0.054}, {"measurement": "half-life", "setting": "[9]", "result": 30, "unit": "min"}, {"measurement": "Cmax", "setting": "[10]", "result": 38, "unit": "ng/mL"}, {"measurement": "Vd", "setting": "[11]", "result": 2.8, "unit": "L/kg"}, {"measurement": "IC50", "setting": "Cytochrome P450 1A2", "result": "> 30", "unit": "µM"}, {"measurement": "fraction unbound", "setting": "[12]", "result": 0.054}, {"measurement": "AUC(0-t)", "setting": "[13]", "result": 263, "unit": "ng·h/mL"}, {"measurement": "MRT last", "setting": "[14]", "result": 162, "unit": "min"}, {"measurement": "IC50", "setting": "Cytochrome P450 2C9", "result": "> 30", "unit": "µM"}, {"measurement": "concentration at 1 h", "setting": "in vivo [15]", "result": 56.8, "unit": "ng/mL"}, {"measurement": "fraction unbound", "setting": "[16]", "result": 0.037}, {"measurement": "IC50", "setting": "Cytochrome P450 2D6", "result": "> 30", "unit": "µM"}, {"measurement": "IC50", "setting": "[17]", "result": "> 30", "unit": "µM"}, {"measurement": "Activity", "setting": "[18]", "result": "Non-toxic"}, {"measurement": "Drug uptake", "setting": "[19]", "result": "Active"}, {"measurement": "Activity", "setting": "[20]", "result": "Non-toxic"}, {"measurement": "concentration at 0.25 h", "setting": "in vivo [21]", "result": 13.7, "unit": "ng/mL"}, {"measurement": "Drug uptake", "setting": "[22]", "result": "Active"}, {"measurement": "concentration at 0.25 h", "setting": "in vivo [23]", "result": 3390, "unit": "ng/mL"}, {"measurement": "clearance", "setting": "[24]", "result": 63.3, "unit": "mL/min/kg"}, {"measurement": "MRT last", "setting": "[25]", "result": 18, "unit": "min"}, {"measurement": "Activity", "setting": "[26]", "result": "Non-toxic"}, {"measurement": "concentration at 4 h", "setting": "in vivo [27]", "result": 72.8, "unit": "ng/mL"}, {"measurement": "Retention_time", "setting": "[28]", "result": 9.36, "unit": "min"}, {"measurement": "IC50", "setting": "Acetyl-CoA carboxylase 2", "result": 0.00374, "unit": "µM"}]}]}
